What was measured:
[1] = Drug level in New Zealand white rabbit bone marrow assessed as [14C]dalbavancin level per gram of tissue at 20 mg/kg, iv after 24 hrs by autoradioluminography; assay type: ADME, organism-based, Oryctolagus cuniculus; design: dose 20 mg/kg, route intravenous; conditions: in vivo
[2] = Drug level in New Zealand white rabbit nucleus pulposus assessed as [14C]dalbavancin level per gram of tissue at 20 mg/kg, iv after 24 hrs by liquid scintillation counting method; assay type: ADME, organism-based, Oryctolagus cuniculus; design: dose 20 mg/kg, route intravenous; conditions: in vivo
[3] = Drug level in New Zealand white rabbit skeletal muscle assessed as [14C]dalbavancin level per gram of tissue at 20 mg/kg, iv after 12 hrs by autoradioluminography; assay type: ADME, organism-based, Oryctolagus cuniculus; design: dose 20 mg/kg, route intravenous; conditions: in vivo
[4] = Drug level in New Zealand white rabbit bone marrow assessed as [14C]dalbavancin level per gram of tissue at 20 mg/kg, iv after 120 hrs by liquid scintillation counting method; assay type: ADME, organism-based, Oryctolagus cuniculus; design: dose 20 mg/kg, route intravenous; conditions: in vivo
[5] = Drug level in New Zealand white rabbit ligament assessed as [14C]dalbavancin level per gram of tissue at 20 mg/kg, iv after 168 hrs by autoradioluminography; assay type: ADME, organism-based, Oryctolagus cuniculus; design: dose 20 mg/kg, route intravenous; conditions: in vivo
[6] = Drug level in New Zealand white rabbit meniscus assessed as [14C]dalbavancin level per gram of tissue at 20 mg/kg, iv after 72 hrs by autoradioluminography; assay type: ADME, organism-based, Oryctolagus cuniculus; design: dose 20 mg/kg, route intravenous; conditions: in vivo
[7] = Drug level in New Zealand white rabbit nucleus pulposus assessed as [14C]dalbavancin level per gram of tissue at 20 mg/kg, iv after 12 hrs by liquid scintillation counting method; assay type: ADME, organism-based, Oryctolagus cuniculus; design: dose 20 mg/kg, route intravenous; conditions: in vivo
[8] = Drug level in New Zealand white rabbit bone assessed as [14C]dalbavancin level per gram of tissue at 20 mg/kg, iv after 336 hrs by liquid scintillation counting method; assay type: ADME, organism-based, Oryctolagus cuniculus, Bone element; design: dose 20 mg/kg, route intravenous; conditions: in vivo
[9] = tested on: Streptococcus; experiment: Antibacterial activity against Streptococcus; assay type: functional
[10] = Drug level in New Zealand white rabbit periostium assessed as [14C]dalbavancin level per gram of tissue at 20 mg/kg, iv after 168 hrs by autoradioluminography; assay type: ADME, organism-based, Oryctolagus cuniculus, Periosteum; design: dose 20 mg/kg, route intravenous; conditions: in vivo
[11] = Drug level in New Zealand white rabbit bone assessed as [14C]dalbavancin level per gram of tissue at 20 mg/kg, iv after 72 hrs by liquid scintillation counting method; assay type: ADME, organism-based, Oryctolagus cuniculus, Bone element; design: dose 20 mg/kg, route intravenous; conditions: in vivo
[12] = Drug level in New Zealand white rabbit bone marrow assessed as [14C]dalbavancin level per gram of tissue at 20 mg/kg, iv after 168 hrs by liquid scintillation counting method; assay type: ADME, organism-based, Oryctolagus cuniculus; design: dose 20 mg/kg, route intravenous; conditions: in vivo
[13] = Drug level in New Zealand white rabbit compact bone assessed as [14C]dalbavancin level per gram of tissue at 20 mg/kg, iv after 336 hrs by autoradioluminography; assay type: ADME, organism-based, Oryctolagus cuniculus, Bone element; design: dose 20 mg/kg, route intravenous; conditions: in vivo
[14] = tested on: Blood; experiment: Drug level in New Zealand white rabbit blood assessed as [14C]dalbavancin level per gram of tissue at 20 mg/kg, iv after 120 hrs by autoradioluminography; assay type: ADME, organism-based, Oryctolagus cuniculus; design: dose 20 mg/kg, route intravenous; conditions: in vivo
[15] = Drug level in New Zealand white rabbit epiphyseal plate assessed as [14C]dalbavancin level per gram of tissue at 20 mg/kg, iv after 120 hrs by autoradioluminography; assay type: ADME, organism-based, Oryctolagus cuniculus; design: dose 20 mg/kg, route intravenous; conditions: in vivo
[16] = Drug level in New Zealand white rabbit skeletal muscle assessed as [14C]dalbavancin level per gram of tissue at 20 mg/kg, iv after 72 hrs by autoradioluminography; assay type: ADME, organism-based, Oryctolagus cuniculus; design: dose 20 mg/kg, route intravenous; conditions: in vivo
[17] = Drug level in New Zealand white rabbit meniscus assessed as [14C]dalbavancin level per gram of tissue at 20 mg/kg, iv after 12 hrs by autoradioluminography; assay type: ADME, organism-based, Oryctolagus cuniculus; design: dose 20 mg/kg, route intravenous; conditions: in vivo
[18] = Drug level in New Zealand white rabbit articular cartilage assessed as [14C]dalbavancin level per gram of tissue at 20 mg/kg, iv after 72 hrs by autoradioluminography; assay type: ADME, organism-based, Oryctolagus cuniculus; design: dose 20 mg/kg, route intravenous; conditions: in vivo
[19] = Drug level in New Zealand white rabbit compact bone assessed as [14C]dalbavancin level per gram of tissue at 20 mg/kg, iv after 12 hrs by autoradioluminography; assay type: ADME, organism-based, Oryctolagus cuniculus, Bone element; design: dose 20 mg/kg, route intravenous; conditions: in vivo
[20] = Drug level in New Zealand white rabbit bone assessed as [14C]dalbavancin level per gram of tissue at 20 mg/kg, iv after 24 hrs by liquid scintillation counting method; assay type: ADME, organism-based, Oryctolagus cuniculus, Bone element; design: dose 20 mg/kg, route intravenous; conditions: in vivo
[21] = Drug level in New Zealand white rabbit bone marrow assessed as [14C]dalbavancin level per gram of tissue at 20 mg/kg, iv after 168 hrs by autoradioluminography; assay type: ADME, organism-based, Oryctolagus cuniculus; design: dose 20 mg/kg, route intravenous; conditions: in vivo
[22] = Drug level in New Zealand white rabbit nucleus pulposus assessed as [14C]dalbavancin level per gram of tissue at 20 mg/kg, iv after 120 hrs by liquid scintillation counting method; assay type: ADME, organism-based, Oryctolagus cuniculus; design: dose 20 mg/kg, route intravenous; conditions: in vivo
[23] = Drug level in New Zealand white rabbit periostium assessed as [14C]dalbavancin level per gram of tissue at 20 mg/kg, iv after 336 hrs by autoradioluminography; assay type: ADME, organism-based, Oryctolagus cuniculus, Periosteum; design: dose 20 mg/kg, route intravenous; conditions: in vivo
[24] = Drug level in New Zealand white rabbit synovial space assessed as [14C]dalbavancin level per gram of tissue at 20 mg/kg, iv after 120 hrs by autoradioluminography; assay type: ADME, organism-based, Oryctolagus cuniculus; design: dose 20 mg/kg, route intravenous; conditions: in vivo
[25] = Drug level in New Zealand white rabbit periostium assessed as [14C]dalbavancin level per gram of tissue at 20 mg/kg, iv after 24 hrs by autoradioluminography; assay type: ADME, organism-based, Oryctolagus cuniculus, Periosteum; design: dose 20 mg/kg, route intravenous; conditions: in vivo
[26] = Drug level in New Zealand white rabbit ligament assessed as [14C]dalbavancin level per gram of tissue at 20 mg/kg, iv after 120 hrs by autoradioluminography; assay type: ADME, organism-based, Oryctolagus cuniculus; design: dose 20 mg/kg, route intravenous; conditions: in vivo
[27] = Drug level in New Zealand white rabbit nucleus pulposus assessed as [14C]dalbavancin level per gram of tissue at 20 mg/kg, iv after 336 hrs by liquid scintillation counting method; assay type: ADME, organism-based, Oryctolagus cuniculus; design: dose 20 mg/kg, route intravenous; conditions: in vivo
[28] = Drug level in New Zealand white rabbit periostium assessed as [14C]dalbavancin level per gram of tissue at 20 mg/kg, iv after 120 hrs by autoradioluminography; assay type: ADME, organism-based, Oryctolagus cuniculus, Periosteum; design: dose 20 mg/kg, route intravenous; conditions: in vivo
[29] = tested on: Blood; experiment: Drug level in New Zealand white rabbit blood assessed as [14C]dalbavancin level per gram of tissue at 20 mg/kg, iv after 72 hrs by autoradioluminography; assay type: ADME, organism-based, Oryctolagus cuniculus; design: dose 20 mg/kg, route intravenous; conditions: in vivo
[30] = Drug level in New Zealand white rabbit articular cartilage assessed as [14C]dalbavancin level per gram of tissue at 20 mg/kg, iv after 336 hrs by autoradioluminography; assay type: ADME, organism-based, Oryctolagus cuniculus; design: dose 20 mg/kg, route intravenous; conditions: in vivo
[31] = Drug level in New Zealand white rabbit cerebrospinal fluid assessed as [14C]dalbavancin level per gram of tissue at 20 mg/kg, iv after 24 hrs by liquid scintillation counting method; assay type: ADME, organism-based, Oryctolagus cuniculus; design: dose 20 mg/kg, route intravenous; conditions: in vivo
[32] = Drug level in New Zealand white rabbit bone marrow assessed as [14C]dalbavancin level per gram of tissue at 20 mg/kg, iv after 72 hrs by autoradioluminography; assay type: ADME, organism-based, Oryctolagus cuniculus; design: dose 20 mg/kg, route intravenous; conditions: in vivo
[33] = Drug level in New Zealand white rabbit synovial space assessed as [14C]dalbavancin level per gram of tissue at 20 mg/kg, iv after 12 hrs by autoradioluminography; assay type: ADME, organism-based, Oryctolagus cuniculus; design: dose 20 mg/kg, route intravenous; conditions: in vivo
[34] = Drug level in New Zealand white rabbit skeletal muscle assessed as [14C]dalbavancin level per gram of tissue at 20 mg/kg, iv after 24 hrs by autoradioluminography; assay type: ADME, organism-based, Oryctolagus cuniculus; design: dose 20 mg/kg, route intravenous; conditions: in vivo
[35] = tested on: Blood; experiment: Drug level in New Zealand white rabbit blood assessed as [14C]dalbavancin level per gram of tissue at 20 mg/kg, iv after 336 hrs by autoradioluminography; assay type: ADME, organism-based, Oryctolagus cuniculus; design: dose 20 mg/kg, route intravenous; conditions: in vivo
[36] = Drug level in New Zealand white rabbit compact bone assessed as [14C]dalbavancin level per gram of tissue at 20 mg/kg, iv after 24 hrs by autoradioluminography; assay type: ADME, organism-based, Oryctolagus cuniculus, Bone element; design: dose 20 mg/kg, route intravenous; conditions: in vivo
[37] = Drug level in New Zealand white rabbit compact bone assessed as [14C]dalbavancin level per gram of tissue at 20 mg/kg, iv after 120 hrs by autoradioluminography; assay type: ADME, organism-based, Oryctolagus cuniculus, Bone element; design: dose 20 mg/kg, route intravenous; conditions: in vivo
[38] = Drug level in human urine assessed as hydroxydalbavancin level; assay type: ADME, tissue-based
[39] = Drug level in New Zealand white rabbit nucleus pulposus assessed as [14C]dalbavancin level per gram of tissue at 20 mg/kg, iv after 168 hrs by liquid scintillation counting method; assay type: ADME, organism-based, Oryctolagus cuniculus; design: dose 20 mg/kg, route intravenous; conditions: in vivo

## CN[C@H]1C(=O)N[C@@H]2Cc3ccc(cc3)Oc3cc4cc(c3O[C@@H]3O[C@H](C(=O)O)[C@@H](O)[C@H](O)[C@H]3NC(=O)CCCCCCCCC(C)C)Oc3ccc(cc3Cl)[C@@H](O)[C@@H]3NC(=O)[C@H](NC(=O)[C@@H]4NC(=O)[C@@H](NC2=O)c2cc(cc(O)c2Cl)Oc2cc1ccc2O)c1ccc(O)c(c1)-c1c(O[C@H]2O[C@H](CO)[C@@H](O)[C@H](O)[C@@H]2O)cc(O)cc1[C@@H](C(=O)NCCCN(C)C)NC3=O [DALBAVANCIN]
[1]
  Drug uptake: 32.1 µg/g
[2]
  Drug uptake: 0.76 µg/g
[3]
  Drug uptake: 3.26 µg
[4]
  Drug uptake: 9.52 µg/g
[5]
  Drug uptake: 2.67 µg
[6]
  Drug uptake: 8.04 µg
[7]
  Drug uptake: 0.86 µg/g
[8]
  Drug uptake: 1.96 µg/g
[9]
  MIC90: ≤ 0.03 µg/mL
[10]
  Drug uptake: 7.28 µg
[11]
  Drug uptake: 3.94 µg/g
[12]
  Drug uptake: 16.1 µg/g
[13]
  Drug uptake: 0.24 µg/g
[14]
  Drug uptake: 1.5 µg/g
[15]
  Drug uptake: 10.3 µg/g
[16]
  Drug uptake: 1.25 µg
[17]
  Drug uptake: 19.19 µg
[18]
  Drug uptake: 8.04 µg/g
[19]
  Drug uptake: 1.56 µg/g
[20]
  Drug uptake: 5.14 µg/g
[21]
  Drug uptake: 18.9 µg
[22]
  Drug uptake: 0.75 µg/g
[23]
  Drug uptake: 5.18 µg
[24]
  Drug uptake: 2.66 µg/g
[25]
  Drug uptake: 11.35 µg
[26]
  Drug uptake: 3.68 µg/g
[27]
  Drug uptake: 0.6 µg/g
[28]
  Drug uptake: 12.2 µg/g
[29]
  Drug uptake: 5.02 µg/g
[30]
  Drug uptake: 4.84 µg
[31]
  Drug uptake: 0.05 µg/g
[32]
  Drug uptake: 37.79 µg
[33]
  Drug uptake: 6.56 µg/g
[34]
  Drug uptake: 1.92 µg
[35]
  Drug uptake: 3.08 µg/g
[36]
  Drug uptake: 1.56 µg/g
[37]
  Drug uptake: 0.38 µg/g
[38]
  Drug uptake: 8 %ID
[39]
  Drug uptake: 0.64 µg/g

From ChEMBL document CHEMBL1155172, “Distribution of radioactivity in bone and related structures following administration of [14C]dalbavancin to New Zealand white rabbits” (Antimicrob Agents Chemother, 2007)
